The source of these data is patent US8912169B2, “Beta-lactamase inhibitors” (VenatoRx Pharmaceuticals, Inc., priority 2012, dated 2014).

Holding throughout (format): biochemical
One assay concerns the target T1, p99 AmpC (Enterobacter cloacae, UniProt P05364).
T1 construct: made in house; host or cells: E. coli BL21(DE3)
Kind of assay: β-lactamase enzyme inhibition, p99 AmpC. In outline:
(§1)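 Native untagged β-lactamases expressed in E. coli BL21(DE3) and purified, then pre-incubated with inhibitor 15 min at 37 °C. Hydrolysis was followed by absorbance: 100 μM nitrocefin at 486 nm for p99 AmpC and OXA-1; imipenem at 300 nm for KPC-2; cefotaxime at 260 nm for SHV-5. IC50 from initial-rate inhibition versus uninhibited controls.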

The next assay addresses T2, SHV-5 (Klebsiella pneumoniae, UniProt P0A3M1).
T2 construct: made in house; host or cells: E. coli BL21(DE3)
Kind of assay: β-lactamase enzyme inhibition, SHV-5. In outline: as §1

The target of a further assay is T3, KPC-2 (Klebsiella pneumoniae, UniProt Q9F663).
T3 construct: made in house; host or cells: E. coli BL21(DE3)
Kind of assay: β-lactamase enzyme inhibition, KPC-2. The note with it: substrate imipenem, 300 nm; read-out: Class A KPC-2 IC50. Put shortly: as §1

In a further assay the target is T4, VIM-2 (Escherichia coli, UniProt Q5U7L7).
T4 construct: made in house; host or cells: E. coli BL21(DE3)
Kind of assay: β-lactamase enzyme inhibition, VIM-2. The settings on record: substrate Nitrocefin 100 μM, 486 nm; read-out: Class B VIM-2 IC50. In outline:
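Purified VIM-2 (Q sepharose, 50 mM Hepes pH 7.5, >90% purity) preincubated with inhibitor 15 min at 37° C, then nitrocefin added at 100 μM final. Hydrolysis followed at 486 nm for 10 min; IC50 from initial rates versus inhibitor-free control wells.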

The target of another assay is T5, OXA-1 (Escherichia coli, UniProt P13661).
T5 construct: made in house; host or cells: E. coli BL21(DE3)
Kind of assay: β-lactamase enzyme inhibition, OXA-1. The settings on record: substrate Nitrocefin 100 μM, 486 nm; read-out: Class D OXA-1 IC50. Put shortly: as §1

Some results are limits rather than exact numbers.

What is called IC50 is the concentration that inhibits the measured activity by half. As to `CS(=O)(=O)NCCN[C@H]1CC[C@H](CC(=O)N[C@H]2Cc3cccc(C(=O)O)c3OB2O)CC1` [Example 49, (R)-2-hydroxy-3-(2-(trans-4-(2-(methylsulfonamido)ethylamino)cyclohexyl)acetamido)-3,4-dihydro-2H-benzo[e][1,2]oxaborinine-8-carboxylic acid], the IC50 was less than 100 nM at p99 AmpC; less than 100 nM against SHV-5; less than 100 nM on KPC-2; 100 to 1000 nM at VIM-2; less than 100 nM at OXA-1.
With `NCCN[C@H]1CC[C@H](CC(=O)N[C@@H]2Cc3cccc(C(=O)O)c3OB2O)CC1` [Example 50, (S)-3-(2-(trans-4-(2-aminoethylamino)cyclohexyl)acetamido)-2-hydroxy-3,4-dihydro-2H-benzo[e][1,2]oxaborinine-8-carboxylic acid], the IC50 on p99 AmpC, against SHV-5, at KPC-2, at VIM-2 and at OXA-1 was 100 to 1000 nM throughout.
Regarding `CNCCN[C@H]1CC[C@H](CC(=O)N[C@H]2Cc3cccc(C(=O)O)c3OB2O)CC1` [Example 51, (R)-2-hydroxy-3-(2-(trans-4-(2-(methylamino)ethylamino)cyclohexyl)acetamido)-3,4-dihydro-2H-benzo[e][1,2]oxaborinine-8-carboxylic acid], the IC50 on p99 AmpC, at SHV-5, on KPC-2, on VIM-2 and at OXA-1 was less than 100 nM throughout.
On to `CN1CCN([C@H]2CC[C@H](CC(=O)N[C@H]3Cc4cccc(C(=O)O)c4OB3O)CC2)C1=N` [Example 52, (R)-2-hydroxy-3-(2-(trans-4-(2-imino-3-methylimidazolidin-1-yl)cyclohexyl)acetamido)-3,4-dihydro-2H-benzo[e][1,2]oxaborinine-8-carboxylic acid], for which the IC50 was less than 100 nM against p99 AmpC; less than 100 nM on SHV-5; less than 100 nM at KPC-2; 10000 to 100000 nM at VIM-2; less than 100 nM on OXA-1.
As for `C[C@H](N)CN[C@H]1CC[C@H](CC(=O)N[C@H]2Cc3cccc(C(=O)O)c3OB2O)CC1` [Example 53, (R)-3-(2-(trans-4-((S)-2-aminopropylamino)cyclohexyl)acetamido)-2-hydroxy-3,4-dihydro-2H-benzo[e][1,2]oxaborinine-8-carboxylic acid], the IC50 against p99 AmpC, against SHV-5, on KPC-2, on VIM-2 and on OXA-1 was less than 100 nM each time.
Consider `COC(=O)NCCN[C@H]1CC[C@H](CC(=O)N[C@H]2Cc3cccc(C(=O)O)c3OB2O)CC1` [Example 54, (R)-2-hydroxy-3-(2-(trans-4-(2-(methoxycarbonylamino)ethylamino)cyclohexyl)acetamido)-3,4-dihydro-2H-benzo[e][1,2]oxaborinine-8-carboxylic acid], for which the IC50 against p99 AmpC is 100 to 1000 nM; on SHV-5 it was less than 100 nM; at KPC-2, less than 100 nM; at VIM-2, 100 to 1000 nM; at OXA-1 it was less than 100 nM.
`NCCNC1CC(CC(=O)N[C@H]2Cc3cccc(C(=O)O)c3OB2O)C1` (stereo partly drawn) [Example 55, (R)-3-(2-(3-(2-aminoethylamino)cyclobutyl)acetamido)-2-hydroxy-3,4-dihydro-2H-benzo[e][1,2]oxaborinine-8-carboxylic acid]: the IC50 against p99 AmpC, at SHV-5, on KPC-2, on VIM-2 and at OXA-1 was less than 100 nM in each case.
With `NC1CC(CC(=O)N[C@H]2Cc3cccc(C(=O)O)c3OB2O)C1` (stereo partly drawn) [Example 56, (R)-3-(2-(3-aminocyclobutyl)acetamido)-2-hydroxy-3,4-dihydro-2H-benzo[e][1,2]oxaborinine-8-carboxylic acid], the IC50 on p99 AmpC was less than 100 nM; against SHV-5, 100 to 1000 nM; at KPC-2, less than 100 nM; at VIM-2, 100 to 1000 nM; on OXA-1, less than 100 nM.
For `NCCNC(=O)NCCN(C(=O)NCCN)C1CC(CC(=O)N[C@H]2Cc3cccc(C(=O)O)c3OB2O)C1` (stereo partly drawn) [Example 57, (R)-3-(2-(3-(3-(2-aminoethyl)-1-(2-(3-(2-aminoethyl)ureido)ethyl)ureido)cyclobutyl)acetamido)-2-hydroxy-3,4-dihydro-2H-benzo[e][1,2]oxaborinine-8-carboxylic acid], the IC50 was less than 100 nM against p99 AmpC; less than 100 nM against SHV-5; less than 100 nM on KPC-2; 100 to 1000 nM on VIM-2; less than 100 nM on OXA-1.
For the compound `NCCNC(=O)NC1CC(CC(=O)N[C@H]2Cc3cccc(C(=O)O)c3OB2O)C1` (stereo partly drawn) [Example 58, (R)-3-(2-(3-(3-(2-aminoethyl)ureido)cyclobutyl)acetamido)-2-hydroxy-3,4-dihydro-2H-benzo[e][1,2]oxaborinine-8-carboxylic acid], the IC50 on p99 AmpC was less than 100 nM; at SHV-5, less than 100 nM; at KPC-2, less than 100 nM; on VIM-2, 100 to 1000 nM; on OXA-1, less than 100 nM.
For `NCCNC(=O)N[C@H]1CC[C@H](CC(=O)N[C@H]2Cc3cccc(C(=O)O)c3OB2O)CC1` [Example 59, (R)-3-(2-(trans-4-(3-(2-aminoethyl)ureido)cyclohexyl)acetamido)-2-hydroxy-3,4-dihydro-2H-benzo[e][1,2]oxaborinine-8-carboxylic acid], the IC50 against p99 AmpC is less than 100 nM; against SHV-5, less than 100 nM; at KPC-2, less than 100 nM; at VIM-2 it was 100 to 1000 nM; on OXA-1 it was less than 100 nM.
Turning to `NCCCN[C@H]1CC[C@H](CC(=O)N[C@H]2Cc3cccc(C(=O)O)c3OB2O)CC1` [Example 60, (R)-3-(2-(trans-4-(3-aminopropylamino)cyclohexyl)acetamido)-2-hydroxy-3,4-dihydro-2H-benzo[e][1,2]oxaborinine-8-carboxylic acid], the IC50 against p99 AmpC, against SHV-5, on KPC-2, on VIM-2 and at OXA-1 was less than 100 nM throughout.
Take `O=C(C[C@H]1CC[C@H](NCCNCCO)CC1)N[C@H]1Cc2cccc(C(=O)O)c2OB1O` [Example 61, (R)-2-hydroxy-3-(2-(trans-4-(2-(2-hydroxyethylamino)ethylamino)cyclohexyl)acetamido)-3,4-dihydro-2H-benzo[e][1,2]oxaborinine-8-carboxylic acid]: the IC50 against p99 AmpC, against SHV-5, at KPC-2, on VIM-2 and on OXA-1 was less than 100 nM in each case.
As to `C[C@H](N)CNCCN[C@H]1CC[C@H](CC(=O)N[C@H]2Cc3cccc(C(=O)O)c3OB2O)CC1` [Example 62, (R)-3-(2-(trans-4-(2-((S)-2-aminopropylamino)ethylamino)cyclohexyl)acetamido)-2-hydroxy-3,4-dihydro-2H-benzo[e][1,2]oxaborinine-8-carboxylic acid], the IC50 on p99 AmpC, against SHV-5, at KPC-2, on VIM-2 and on OXA-1 was less than 100 nM in each case.
Take `CN(CCN)[C@H]1CC[C@H](CC(=O)N[C@H]2Cc3cccc(C(=O)O)c3OB2O)CC1` [Example 63, (R)-3-(2-(trans-4-((2-aminoethyl)(methyl)amino)cyclohexyl)acetamido)-2-hydroxy-3,4-dihydro-2H-benzo[e][1,2]oxaborinine-8-carboxylic acid]: the IC50 on p99 AmpC, on SHV-5, at KPC-2, at VIM-2 and on OXA-1 was less than 100 nM in each case.
For the compound `CNCCN[C@H]1CC[C@H](C(CO)C(=O)N[C@H]2Cc3cccc(C(=O)O)c3OB2O)CC1` (stereo partly drawn) [Example 64, (R)-2-hydroxy-3-(3-hydroxy-2-(trans-4-(2-(methylamino)ethylamino)cyclohexyl)propanamido)-3,4-dihydro-2H-benzo[e][1,2]oxaborinine-8-carboxylic acid], the IC50 against p99 AmpC was less than 100 nM; against SHV-5, less than 100 nM; at KPC-2, 100 to 1000 nM; on VIM-2 it was less than 100 nM; at OXA-1, less than 100 nM.
Take `N[C@@H](CO)CN[C@H]1CC[C@H](CC(=O)N[C@H]2Cc3cccc(C(=O)O)c3OB2O)CC1` [Example 65, (R)-3-(2-(trans-4-((R)-2-amino-3-hydroxypropylamino)cyclohexyl)acetamido)-2-hydroxy-3,4-dihydro-2H-benzo[e][1,2]oxaborinine-8-carboxylic acid]: the IC50 against p99 AmpC, on SHV-5, on KPC-2, on VIM-2 and on OXA-1 was less than 100 nM in each case.
As to `CSCCN[C@H]1CC[C@H](CC(=O)N[C@H]2Cc3cccc(C(=O)O)c3OB2O)CC1` [Example 66, (R)-2-hydroxy-3-(2-(trans-4-(2-(methylthio)ethylamino)cyclohexyl)acetamido)-3,4-dihydro-2H-benzo[e][1,2]oxaborinine-8-carboxylic acid], the IC50 is less than 100 nM at p99 AmpC; less than 100 nM against SHV-5; less than 100 nM at KPC-2; 1000 to 10000 nM on VIM-2; less than 100 nM on OXA-1.
